Here are results for nine compounds from ChEMBL document CHEMBL3425399, “Progress in discovery of small-molecule modulators of protein-protein interactions via fragment screening” (Bioorg Med Chem Lett, 2015).

In assay [1] the target is T1, DNA repair protein RAD51 homolog 1 (Homo sapiens, UniProt Q06609).
T1 sequence (Q06609 whole entry): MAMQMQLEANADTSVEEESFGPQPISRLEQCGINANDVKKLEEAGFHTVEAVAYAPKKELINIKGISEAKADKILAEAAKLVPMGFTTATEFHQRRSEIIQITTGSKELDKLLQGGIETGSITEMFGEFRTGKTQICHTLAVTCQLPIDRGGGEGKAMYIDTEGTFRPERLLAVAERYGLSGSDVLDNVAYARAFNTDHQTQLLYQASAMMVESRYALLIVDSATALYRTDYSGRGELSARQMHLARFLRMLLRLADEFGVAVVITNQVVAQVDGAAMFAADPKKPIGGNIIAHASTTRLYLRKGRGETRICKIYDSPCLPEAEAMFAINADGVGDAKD
Description: Binding affinity to RAD51 (unknown origin) by isothermal calorimetry. (In general: In ITC the heat of successive injections is recorded.)

In assay [2] the target is GTPase KRas (Homo sapiens, UniProt P01116). Description: Binding affinity to KRas (unknown origin).
In assay [3] the test system is Hepatitis C virus. The assay is described as follows: Antiviral activity against HCV by cell based viral replicon assay. The assay is classed as functional, organism-based, Hepacivirus hominis. On the technique in general: Replicon systems follow genome replication, usually without infectious particles.
Assay [4] deals with Hepacivirus hominis. The assay is described as follows: Inhibition of HCV NS3 protease at 0.01 uM by FRET assay.
In assay [5] the test system is Hepacivirus hominis. The assay is described as follows: Inhibition of HCV NS3 protease at 500 uM by FRET assay.

Sequence of GTPase KRas (P01116 whole entry): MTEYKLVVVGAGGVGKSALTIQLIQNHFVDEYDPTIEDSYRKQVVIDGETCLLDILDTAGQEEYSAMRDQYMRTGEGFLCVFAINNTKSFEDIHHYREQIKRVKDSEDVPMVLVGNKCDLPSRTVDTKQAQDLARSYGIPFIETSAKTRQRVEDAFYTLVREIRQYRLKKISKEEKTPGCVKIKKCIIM

In assay [1], `O=S(=O)(NCCc1c[nH]c2ccccc12)c1cc(Br)c(Cl)s1` showed a Kd of 1.3 µM.
The compound `N[C@@H](Cc1c[nH]c2ccccc12)C(=O)OCCc1ccccc1` gave a dissociation constant (Kd) in assay [1] of 35 µM.
In assay [2], `CC[C@H](C)[C@H](N)C(=O)Nc1ccc2nc(Cc3c[nH]c4ccccc34)[nH]c2c1` showed a Kd of 190 µM.
In turn, `CC[C@@H](N[C@@H](C)CC(=O)NCCN)c1ccc(Cl)c(Oc2ccccc2)c1F` came in with an EC50 in assay [3] of 0.008 µM. In addition, the inhibition in assay [4] is 68%.
In turn, `COC(=O)[C@@H](N)Cc1c[nH]c2ccccc12` [TRYPTOPHAN METHYL ESTER] came in with a Kd in assay [1] of 570 µM.
In the case of `Cc1[nH]c2ccccc2c1Cc1nc2ccccc2[nH]1`, in assay [2], the affinity, expressed as Kd, was 2000 µM.
The compound `NCc1ccc(Oc2ccccc2)cc1` yielded an inhibition in assay [5] of 55%.
`Oc1ccc2[nH]ccc2c1` showed an equilibrium dissociation constant (Kd) in assay [1] of 2100 µM.
Same read-out and setting: in the case of `O=C(N[C@@H](Cc1c[nH]c2ccccc12)C(=O)OCCc1ccccc1)c1ccccc1` it was 3 µM.

The term Kd denotes the equilibrium constant for the complex coming apart. A lower Kd goes with tighter binding. As usually defined, the EC50 is the concentration needed to bring the measured effect to its halfway point. A lower EC50 goes with a more potent agent. Usually inhibition stands for the percentage by which the read-out fell short of the control. Read a low inhibition as little suppression.
